Measurements: patent US20010036944A1, “Certain benzothiazine dioxide endothelin antagonists and processes for their preparation” (priority 1997, published 2001)
pIC50: −log10 of the molar value. Counter-ions that a name gives are not always drawn.

Tests used:
[1] = biological target: T1, recombinant human ETAR (HETA) (Homo sapiens, UniProt P25101); experiment: Radioligand binding, [125I]ET-1 to membranes of Ltk- cells expressing recombinant human ETAR (HETA); conditions: [125I]ET-1 binding, human ETA, Ltk- cell membranes; read-out: HETA (IC50)
T1 construct: expressed in transfected cells; host or cells: Ltk- cells (membrane preparation)
T1 sequence (P25101 21-427): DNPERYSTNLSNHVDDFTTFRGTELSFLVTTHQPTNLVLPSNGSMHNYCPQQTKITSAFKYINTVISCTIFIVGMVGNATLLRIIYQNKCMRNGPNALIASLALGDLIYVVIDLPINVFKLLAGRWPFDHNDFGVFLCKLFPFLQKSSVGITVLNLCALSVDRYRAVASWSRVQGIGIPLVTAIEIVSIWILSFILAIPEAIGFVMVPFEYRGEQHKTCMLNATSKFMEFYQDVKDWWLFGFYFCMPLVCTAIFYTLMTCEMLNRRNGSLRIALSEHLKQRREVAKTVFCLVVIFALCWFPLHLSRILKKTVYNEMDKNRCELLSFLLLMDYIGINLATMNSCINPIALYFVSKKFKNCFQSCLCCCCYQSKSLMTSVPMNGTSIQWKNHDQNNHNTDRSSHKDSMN
Protocol: (§1) The following cultured cells were used in binding experiments: Ltk-cells expressing recombinant human ETAR (HETA), and CHOKI cells expressing recombinant human ETBR (HETB).
(§2) Membranes were prepared from cultured cells by lysing cells in cold lysis buffer (5 mM HEPES, 2 mM EDTA, pH 7.4) and homogenizing with a Dounce “A” homogenizer. The homogenate was centrifuged at 30,000×g for 20 minutes at […]. Membrane pellets were suspended in cold buffer containing 20 mM Tris, 2 mM EDTA, 200 μM Pefabloc, 10 μM phosphoramidon, 10 μM leupeptin, 1 μM pepstatin at pH 7.4 and frozen at […] until use. Membranes were thawed and homogenized with a Brinkmann Polytron then diluted in tissue buffer containing 20 mM Tris, 2 mM EDTA, 200 μM Pefabloc, and 100 μM bacitracin (pH 7.4). Radioligand and competing ligands were prepared in binding buffer containing 20 mM Tris, 2 mM EDTA, and 0.1% BSA.
(§3) The assay was terminated by filtration over Whatman GF/B filters which were presoaked with 50 mM Tris, pH 7.4 containing 0.2% BSA and 100 μM bacitracin. Nonspecific binding was defined as binding in the presence of 100 nM ET-1.

[2] = biological target: T2, recombinant human ETBR (HETB) (Homo sapiens, UniProt P24530); experiment: Radioligand binding, [125I]ET-1 to membranes of CHOKI cells expressing recombinant human ETBR (HETB); conditions: [125I]ET-1 binding, human ETB, CHOKI cell membranes
T2 construct: expressed in transfected cells; host or cells: CHOKI (CHO-K1) cells (membrane preparation)
T2 sequence (P24530 27-442): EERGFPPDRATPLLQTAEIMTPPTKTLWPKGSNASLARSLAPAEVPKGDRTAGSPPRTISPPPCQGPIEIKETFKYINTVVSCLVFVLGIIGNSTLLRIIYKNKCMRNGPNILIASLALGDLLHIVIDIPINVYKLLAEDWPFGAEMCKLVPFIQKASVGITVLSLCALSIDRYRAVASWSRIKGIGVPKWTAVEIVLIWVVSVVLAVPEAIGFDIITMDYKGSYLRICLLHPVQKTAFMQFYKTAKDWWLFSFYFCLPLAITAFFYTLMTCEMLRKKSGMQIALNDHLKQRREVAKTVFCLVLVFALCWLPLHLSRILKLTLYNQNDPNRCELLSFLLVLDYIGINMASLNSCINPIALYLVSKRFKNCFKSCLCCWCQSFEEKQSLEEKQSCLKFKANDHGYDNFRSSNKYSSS
Protocol: as §1, §2, §3

[3] = system: ETA, rabbit femoral artery; experiment: Antagonism of ET-1 stimulated vasoconstriction (VERAA) in the rabbit femoral artery (ETA); conditions: ET-1 stimulated vasoconstriction, rabbit femoral artery
Text: In Vitro Antagonism of ET-1 Stimulated Vasoconstriction (VERAA) in the Rabbit Femoral Arterv (ETA) and Sarafotoxin 6C Stimulated Vasoconstriction in the Rabbit Pulmonarv Artery (ETB)
Male New Zealand rabbits were killed by cervical dislocation and exsanguination. Femoral and pulmonary arteries were isolated, cleaned of connective tissue, and cut into 4mm rings. The endothelium was denuded by placing the rings over hypodermic tubing (32 gauge for femoral rings and 28 gauge for pulmonary rings, Small Parts, Inc., Miami, Fla.) and gently rolling them. Denuded rings were mounted in 20 mL organ baths containing Krebsbicarbonate buffer (composition in mM: NaCl, 118.2; NaHCO3, 24.8; KCl, 4.6; MgSO4 7H2O, 1.2; KH2PO4, 1.2; CaCl2 2H2O; CaNa2 EDTA, 0.026;, dextrose, 10.0), that was maintained at 37° C. and gassed continuously with 5% CO2 in oxygen (pH 7.4). Resting tension was adjusted to 3.0 g for femoral and 4.0 g pulmonary arteries; the rings were left for 90 minutes to equilibrate. Vascular rings were tested for lack of functional endothelium (ie, lack of an endotheliumdependent relaxation response to carbachol ([…]) in norepinephrine ([…]) contracted rings. Agonist peptides, ET-1 -(femoral), and S6c (pulmonary), were cumulatively added at 10-minute intervals. The ET antagonists were added 30 minutes prior to adding the agonist.

pIC50 [1]	pIC50 [2]	Molecule	VERAA (pA2) [3]
7.05	< 4.60	Cc1noc(N2C(C(=O)O)=C(c3ccc4c(c3)OCO4)c3ccccc3S2(=O)=O)c1C [Example 28]	–
7.52	4.89	O=C(O)C1=C(c2ccc3c(c2)OCO3)c2ccccc2S(=O)(=O)N1c1cccc(Cl)c1Cl [Example 21, 4-Benzo-[1,3]dioxol-5-yl-2-(2,3-dichlorophenyl)1,1-dioxo-1,2dihydro1λ^6-benzo [e][1,2]thiazine-3-carboxylic acid]	–
8.40	5.70	COc1cc(C2=C(C(=O)O)N(c3ccccc3Cc3ccccc3)S(=O)(=O)c3ccccc32)cc2c1OCO2 [Example 5, 2-(2-Benzylphenyl)4-(7-methoxy-benzo[1,3]dioxo-5-yl)-1,1-dioxo-1,2-dihydro-1λ^6-benzo[e][1,2]thiazine-3-carboxylic acid]	–
7.40	< 5.60	O=C(O)C1=C(c2ccc3c(c2)OCO3)c2ccccc2S(=O)(=O)N1c1ccccc1Cc1ccccc1 [Example 29, 4-Benzo[1,3]dioxol-5-yl-2-(2benzylphenyl)-1,1-dioxo-1,2-dihydro-1λ^6-benzo[e][1,2]thiazine-3-carboxylic acid]	–
8.52	< 5.60	COc1cc(OC)cc(C2=C(C(=O)O)N(c3ccccc3Br)S(=O)(=O)c3ccccc32)c1 [Example 3, 2-(2-Bromophenyl)-4-(3,5-dimethoxy-phenyl)-1,1-dioxo-1,2-dihydro-1 λ^6-benzo[e][1,2]thiazine-3-carboxylic acid]	–
7.05	4.96	CC(C)c1ccccc1N1C(C(=O)O)=C(c2ccc3c(c2)OCO3)c2ccccc2S1(=O)=O [Example 15, 4-Benzo[1,3]dioxol-5-yl-2-(2isopropylphenyl)-1,1-dioxo 1,2-dihydro 1λ^6-benzo[e][1,2]thiazine-3-carboxylic acid]	–
6.96	< 4.60	O=C(O)C1=C(c2ccc3c(c2)OCO3)c2ccccc2S(=O)(=O)N1c1ccccc1F [Example 19, 4-Benzo-[1,3]dioxol-5-yl-2-(2-fluorohenyl)-1,1-dioxo-1,2dihydro-1λ^6-benzo[e]rl[2]thiazine-3-carboxylic acid]	–
8.52	< 5.60	COc1cc(OC)cc(C2=C(C(=O)O)N(c3ccccc3C(F)(F)F)S(=O)(=O)c3ccccc32)c1 [Example 1, 4-(3,5-Dimethoxyphenyl)2-(2-trifluoromethyl-phenyl)-1,1-dioxo-1,2-dihydro-1λ^6-benzo[e][1,2]thiazine-3-carboxylic acid]	6.6
7.59	< 5.60	CCCCc1ccccc1N1C(C(=O)O)=C(c2ccc3c(c2)OCO3)c2ccccc2S1(=O)=O [Example 16, 4-Benzo[1,3]dioxol-5-yl-2-(2butylphenyl)-1,1-dioxo-1,2-dihydro-1λ^6-benzo[e][1,2]thiazine-3-carboxylic acid]	–
7.68	5.21	COc1ccc(N2C(C(=O)O)=C(c3ccc4c(c3)OCO4)c3ccccc3S2(=O)=O)c(Cl)c1 [Example 23, 4-Benzo[1,3]dioxol-5-yl-2-(2-chloro-4-methoxyphenyl)-1,1-dioxo-1,2-dihydro-1λ^6-benzo[e][1,2]thiazine-3-carboxylic acid]	–
7.52	4.77	Cc1c(Cl)cccc1N1C(C(=O)O)=C(c2ccc3c(c2)OCO3)c2ccccc2S1(=O)=O [Example 24]	–
7.30	4.89	O=C(O)C1=C(c2ccc3c(c2)OCO3)c2ccccc2S(=O)(=O)N1c1ccc(Cl)cc1Cl [Example 22]	–
8.52	5.25	COc1cc(C2=C(C(=O)O)N(c3ccccc3Cl)S(=O)(=O)c3ccccc32)cc2c1OCO2 [Example 4, 2-(2-Chloro-phenyl)-4-(7-methoxy-benzo[1,3]dioxol-5-yl)-1,1-dioxo-1,2-dihydro-1λ^6-benzo[e][1,2]-thiazine-3-carboxylic acid]	–
7.64	< 5.60	CCc1ccccc1N1C(C(=O)O)=C(c2ccc3c(c2)OCO3)c2ccccc2S1(=O)=O [Example 13, 4-Benzo [1,3]dioxol-5-yl-2-(2ethyl-phenyl)-1,1-dioxo-1,2-dihydro-1λ^6-benzo[e][1,2]thiazine-3-carboxylic acid]	–
7.02	< 5.60	4-(6-Methoxybenzo[1,3]dioxol-5-yl)-1,1-dioxo-2-(2-trifluoro-methyl-phenyl)-1,2-dihydro-1λ^6-benzo[e]r [1,2]thiazine-3-carboxylic acid [Example 30]	–
7.77	< 4.60	Cc1cccc(C)c1N1C(C(=O)O)=C(c2ccc3c(c2)OCO3)c2ccccc2S1(=O)=O [Example 26, 4-Benzo[1,3]dioxol-5-yl-2-(2,6dimethyl-phenyl)-1,1-dioxo-1,2dihydro-1λ^6-benzo[e][1,2]thiazine-3-carboxylic acid]	–
7.40	4.72	O=C(O)C1=C(c2ccc3c(c2)OCO3)c2ccccc2S(=O)(=O)N1c1ccccc1-n1cccc1 [Example 27, 4-Benzo[1,3]dioxol-5-yl-1,1-dioxo-2-(2-2-pyrrol-1-ylphenyl)-1,2-dihydro-1λ^6-benzo[e][12]thiazine-3-carboxylic acid]	–
8.70	5.14	COc1cc(OC)cc(C2=C(C(=O)O)N(c3ccccc3Cl)S(=O)(=O)c3ccccc32)c1 [Example 2]	6.6

Molecule	pIC50 [1]	pIC50 [2]	VERAA (pA2) [3]
O=C(O)C1=C(c2ccc3c(c2)OCO3)c2ccccc2S(=O)(=O)N1c1ccccc1C(F)(F)F [Example 11, 4-Benzo[1,3]dioxol-5-yl-1,1-dioxo-2-(2-trifluoromethyl-phenyl)-1,2-dihydro-1λ^6-benzo[e][1,2]thiazine-3-carboxylic acid]	7.96	4.96	6.6
COc1cc(C2=C(C(=O)O)N(c3ccccc3Br)S(=O)(=O)c3ccccc32)cc2c1OCO2 [Example 9, 2-(2-Bromo-phenyl)4-(7-methoxy-benzo[1,3]-dioxol-5-yl)-1,1 dioxo 1,2-dihydro-1λ^6-benzo[e][1,2]-thiazine-3-carboxylic acid monosodium salt]	8.70	< 5.60	6.9
CCCc1ccccc1N1C(C(=O)O)=C(c2ccc3c(c2)OCO3)c2ccccc2S1(=O)=O [Example 14, 4-Benzo[1,3]dioxol-5-yl-2-(2-1,2-pyphenyl)-1,1-dioxo 1,2-dihydro-1λ^6-benzo[e][1,2]thiazine-3-carboxylic acid]	7.46	< 5.60	5.8
4-(3,5-Dimethyl-phenyl)-2-(2-trifluoro-methyl-phenyl)-1,1-dioxo-1,2dihydro-1λ^6-benzo[e][1,2]thiazine-3-carboxylic acid [Example 31]	8.22	< 5.60	5.7
